Measured values reported in patent US11351291B2, “Systems or apparatuses and methods for performing dialysis” (ADVITOS GMBH, priority 2016, dated 2022).

What was measured:
albumin [1] = target: T1, albumin (Homo sapiens, UniProt P02768); settings: binding to albumin; reported association constants; cited from earlier work
albumin [2] = target: T1, albumin; experiment: pH dependence of binding affinity for albumin
Description: Adjusting the pH of the fluids to the acidic and/or basic range makes it possible to selectively influence the binding of different substances to the respective carrier proteins or adsorbers. […] For example, the binding of copper ions to albumin can be weakened in this way so that free, dissolved copper ions in the following filter can be removed by dialysis, filtration, diafiltration, centrifugation, a field, or sorting by weight difference. Analogously, the pH of the fluid can be adjusted to the basic range so that the toxins liberated in the alkaline range can then be eliminated from the fluid by dialysis, filtration or diafiltration. […] A pH range of 8-13 is often preferred.
Devices for adjusting the pH include especially devices for adding acid or base, for example metering pumps. Appropriate acids or bases arc aqueous solutions of biologically compatible acids or bases. It is generally preferable to use acids or bases whose conjugate bases or acids are ions that occur naturally in the human organism. Examples of acids which can be used are hydrochloric acid, sulfuric acid or acetic acid, hydrochloric acid being preferred. Examples of bases which can be used are sodium hydroxide solution or potassium hydroxide solution, sodium hydroxide solution being preferred. […]

T1 sequence (P02768 25-609): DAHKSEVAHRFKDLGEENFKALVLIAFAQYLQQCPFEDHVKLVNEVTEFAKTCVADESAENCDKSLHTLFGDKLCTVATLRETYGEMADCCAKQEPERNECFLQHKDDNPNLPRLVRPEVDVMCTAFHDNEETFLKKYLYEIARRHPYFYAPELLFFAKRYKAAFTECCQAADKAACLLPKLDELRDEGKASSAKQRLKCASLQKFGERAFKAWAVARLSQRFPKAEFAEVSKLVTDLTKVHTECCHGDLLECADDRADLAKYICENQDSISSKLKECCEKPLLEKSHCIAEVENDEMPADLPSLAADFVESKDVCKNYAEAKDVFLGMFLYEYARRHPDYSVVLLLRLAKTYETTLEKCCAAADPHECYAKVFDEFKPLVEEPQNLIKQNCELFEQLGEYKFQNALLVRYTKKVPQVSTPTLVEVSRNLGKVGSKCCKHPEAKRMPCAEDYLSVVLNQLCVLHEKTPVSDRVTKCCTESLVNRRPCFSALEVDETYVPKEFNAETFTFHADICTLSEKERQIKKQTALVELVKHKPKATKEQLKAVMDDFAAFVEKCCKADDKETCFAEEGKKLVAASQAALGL

For `C=C1CC[C@H](O)C/C1=C/C=C1\CCC[C@]2(C)[C@@H]([C@H](C)CCCC(C)(C)O)CC[C@@H]12` [25,OH—VitaminD3], the “Association constant, KA” value (albumin [1]) is listed as 600000 M⁻¹.

For `C[C@]12CCC(=O)C=C1CC[C@@H]1[C@@H]2[C@@H](O)C[C@]2(C=O)[C@@H](C(=O)CO)CC[C@@H]12` [Aldosterone], the “Association constant, KA” value (albumin [1]) is listed as 3200 M⁻¹.

In the case of `C/C1=C2N=C(/C=C3N=C(/C(C)=C4\[N-]C(C(CC(N)=O)C4(C)CCC(=O)NCC(C)OP(=O)([O-])OC4C(CO)OC(n5cnc6cc(C)c(C)cc65)C4O)C4(C)N=C1C(CCC(N)=O)C4(C)CC(N)=O)C(CCC(N)=O)C\3(C)C)C(CCC(N)=O)C/2(C)CC(N)=O.O.[Co+3].[OH-]` (centres unmarked) [Aquocobalamin], the “Association constant, KA” value (albumin [1]) is given as 2e+07 M⁻¹.

In the case of `[Ca+2]` [Calcium], the “Association constant, KA” value (albumin [1]) is listed as 1510 M⁻¹.

In the case of `Cl` [Chloride], the “Association constant, KA” value (albumin [1]) is listed as 720 M⁻¹.

For `C[C@]12CCC(=O)C=C1CC[C@@H]1[C@@H]2[C@@H](O)C[C@@]2(C)[C@H]1CC[C@]2(O)C(=O)CO` [Cortisol], the “Association constant, KA” value (albumin [1]) is given as 5000 M⁻¹.

In the case of `CCCCC[C@H](O)/C=C/[C@H]1[C@H](O)CC(=O)[C@@H]1CCCCCCC(=O)O` [Eicosanoids (PGE1), PGE1], the “Association constant, KA” value (albumin [1]) is listed as 70000 M⁻¹.

For `C=CC1=C(C)c2cc3[n-]c(cc4[n-]c(cc5nc(cc1n2)C(C)=C5C=C)c(C)c4CCC(=O)O)c(CCC(=O)O)c3C.O.[Fe+2]` [Hematin], the “Association constant, KA” value (albumin [1]) is given as 1.1e+08 M⁻¹.

For `N[C@@H](Cc1c[nH]c2ccccc12)C(=O)O` [L-tryptophan], the “Association constant, KA” value (albumin [1]) is listed as 10000 M⁻¹.

In the case of `[Mg+2]` [Magnesium], the “Association constant, KA” value (albumin [1]) is given as 100 M⁻¹.

In the case of `CC(=O)[C@H]1CC[C@H]2[C@@H]3CCC4=CC(=O)CC[C@]4(C)[C@H]3CC[C@]12C` [Progesterone], the “Association constant, KA” value (albumin [1]) is listed as 360000 M⁻¹.

For `C[C@]12CC[C@H]3[C@@H](CCC4=CC(=O)CC[C@@]43C)[C@@H]1CC[C@@H]2O` [Testosterone], the “Association constant, KA” value (albumin [1]) is given as 24000 M⁻¹.

For `[Zn+2]` [Zinc(II)], the “Association constant, KA” value (albumin [1]) is given as 3.4e+07 M⁻¹.

In the case of Copper(II), the “Association constant, KA” value (albumin [1]) is given as 1.5e+16 M⁻¹, the “binding affinity for albumin” value (albumin [2]; pH above about 3) is given as “particularly high binding affinity” and the “binding affinity for albumin” value (albumin [2]; pH range around 2) is given as “significantly lowered”.

For t-25-(OH)2—Vitamin D3, the “Association constant, KA” value (albumin [1]) is listed as 50000 M⁻¹.
